The test system of this assay is blood clots (whole blood or plasma clot labelled with 125I-fibrinogen). Kind of assay: in vitro clot lysis assay (release of 125I-fibrin-derived fragments, TPA-initiated lysis). The assay is classed as biochemical. The conditions noted are these: buffer pH 7.5. The method, then: In the assay, whole blood or plasma is charged with ^125 I-fibrinogen Thrombin is added to initiate clot formation and subsequently incubated for 2 hours to complete the cross-linking by endogenous Factor XIII. Factor XIIIa inhibitor is added prior to clot initiation or at various times during the 2-hour incubation. At the end of this period, the labelled clot is washed and lysis is initiated by exogenous tissue plasminogen activator (TPA). Exogenous plasminogen is employed in some experiments Endogenous plasminogen is used for others. Clot dissolution as a function of time is monitored by the release of solubilized ^125 I-fibrin-derived fragments.
In FIGS. 1 and 2, the open symbols indicate absence of cerulenin and the closed symbols indicate the presence of 200μM cerulenin at the time of clot formation. Clot lysis is conducted in buffer, pH 7.5; 5 ng/mL TPA represents approximate physiologic concentration. 50 to […] represents pharmacologic concentration range. […] FIG. 2 studies employed glu-plasminogen levels at approximately 10 percent physiologic level ([…]).

`C/C=C/C/C=C/CCC(=O)[C@H]1O[C@H]1C(N)=O` [Cerulenin, 3-(1-oxo-4,7-nonadienyl)-oxiranecarboxamide]: the “rates and extents of clot lysis” value (200μM inhibitor at clot formation, no exogenous plasminogen, TPA at physiological and pharmacological levels, FIG. 1) was “enhanced rates and extents of lysis”. The “rate of TPA catalyzed clot lysis” value (200μM inhibitor, 12μg/mL exogenous glu-plasminogen, TPA, FIG. 2) was “lysis rates were further enhanced”.
